From US5688793A, “Pyridazino[4',5':3,4]pyrrolo-[2,1-a]-isoquinolines and the use thereof for preparing pharmaceutical preparations” (Boehringer Ingelheim GmbH, priority 1993, dated 1997)

What was measured:
[1] = tested on: unselective cation channels (UCC); test: Thapsigargin-stimulated calcium entry through unselective cation channels in fura-2-charged RBL-hm 1 cells; type: cell-based, rat; conditions: 10^-5 M test substance, Thapsigargin (0.1 μM) stimulation
Description: For screening purposes, fura-2-charged adhesive RBL-hm 1 cells are stimulated with […] Thapsigargin in a Ca^2+ -free incubation medium. After 4 minutes, extracellular Ca^2+ is restored to a concentration of 1.5 mM and, using the fura-2-fluorescence, the excessive increase in the cytoplasmic Ca^2+ -concentration caused by a massive transmembranal Ca^2+ -entry through unselective cation channels is recorded.
The fluorometric calcium measurement in the cytoplasm of individual adhering RBL-hm1 cells is carried out analogously to the method described by KUDO and OGURA (1986) for neuronal cells. An AXIOVERT 35 fluorescence microscope made by ZEISS is used in conjunction with an imaging system made by HAMAMATSU, consisting of the ICMS-image processing system, residual light camera with control unit and image intensifier DVS 3000.
The kinetics of the cytoplasmic Ca^2+ -concentration is recorded continuously as a concentration/time curve after the cell activation stimulated by Thapsigargin (0.1 μM). […] The area under these curves (area under the curve=AUC) is integrated and recorded as a measurement of cell activation. The inhibitory potency of the UCC-blockers tested is determined using the following equation: [formula] […]
AUC control=area under the curve which is recorded only after the addition of the stimulant.
The percentage inhibition of UCC after Thapsigargin stimulation (0.1 μM Thapsigargin) in RBL-hm 1 cells is given. […]

RBL-2H3-cells = test: Antigen (DNP-BSA)-induced activation of sensitised RBL-2H3 cells, fluorometric cytoplasmic calcium measurement; type: cell-based; conditions: Rattus norvegicus, read-out: inhibition of the antigen-induced cell activation
Description: Individual RBL-2H3-cells (a turnout cell line related to the mast cells) adhering to glass slides are used.
The cultivation and attachment of the RBL-2H3-cells are carried out by the method described by HIDE and BEAVEN (1991). In order to sensitise the adhesive RBL-2H3-cells the cells are incubated for 2 hours at ambient temperature with a 1:2000 diluted commercial gammaglobulin E-solution against a dinitrophenol-bovine serum albumin complex (DNP-BSA-antigen). The cells are then washed. By the addition of 0.1 ml of DNP-BSA-solution (10 μg/ml) there is a massive immunological cell activation which is mediated by a cytoplasmic Ca^2+ -overload. The fluorometric calcium measurement in the cytoplasm of individual adhering RBL-2H3-cells is carried out analogously to the method described by KUDO and OGURA (1986) for neuronal cells, which is also explained hereinbefore in this specification.
The comparison used in these investigations is (10 μM) chromoglycate which brings about an approximately 50% inhibition of the antigen-induced cell activation.

| SMILES | % H (10^-5 M), percentage inhibition of the calcium entry through unselective cation channels [1] | inhibition at 10 µM (RBL-2H3-cells) |
| --- | --- | --- |
| COc1cc2c(cc1OC)-c1c3cnnc(SCCCCOc4ccccc4F)c3cn1CC2 | 61.6% |  |
| COc1cc2c(cc1OC)-c1c3cnnc(SCc4ccc(Br)cc4)c3cn1CC2 | 62.9% |  |
| COc1cc2c(cc1OC)-c1c3cnnc(SCc4cccc(Cl)c4)c3cn1CC2 | 81.9% |  |
| COc1cc2c(cc1OC)-c1c3cnnc(SCc4ccc(F)cc4)c3cn1CC2 | 94.6% |  |
| COc1cc2c(cc1OC)-c1c3cnnc(SCc4ccccc4)c3cn1CC2 | 97.5% |  |
| COc1cc2c(cc1OC)-c1c3cnnc(OC)c3cn1CC2 [CH3 (X:O), 5,6-Dihydro-2,3,9-trimethoxypyridazino[4',5':3,4]-pyrrolo[2,1-a]isoquinoline] | 62.5% |  |
| COc1cc2c(cc1OC)-c1c3cnnc(SC)c3cn1CC2 [CH3 (X:S), reference compound] | 46.4% |  |
| O=C(O)c1cc(=O)c2c(OCC(O)COc3cccc4oc(C(=O)O)cc(=O)c34)cccc2o1 [chromoglycate] |  | ~50% |
